Results on two compounds are retold here after patent publication US11339140B2, “Compositions and methods comprising substituted 2-aminoimidazoles” (Curza Global, LLC, priority 2017, dated 2022).

The structures appear in SMILES notation. In brackets after ≈: the same amount, converted by molar mass.

Test [1] deals with Mycobacterium tuberculosis. Particulars: cited from earlier work.
Test [2] deals with Candida albicans. Conditions: cited from earlier work.
Test [3] deals with mouse mammary tumor model. Briefly: mouse mammary tumor model. The test is classed as in vivo.
The test system of test [4] is breast cancer. Briefly: cancer-selective cell death with Zn2+. The format is cell-based. Conditions: caspase-independent mechanism.
Test [5] has as its system primary metastatic cells derived from breast cancer patients. As to the kind of experiment: activity against primary metastatic cells derived from breast cancer patients. The format is cell-based, human. Conditions: patients treated with multiple frontline chemotherapeutics.

In the case of `COc1ccc(Cc2nc(NC3=NC(=O)N(C)C3=O)n(C)c2Cc2ccc(O)cc2)cc1` [Naamidine A], in test [1], the “IC50 against Mycobacterium tuberculosis” value was 0.41 µg/mL (≈ 0.946 µM). In addition, the “MIC100 against Candida albicans” value in test [2] was 0.78 µM (≈ 0.338 µg/mL).
Take `COc1ccc(-c2c(Cc3ccccc3)[nH]/c(=N\C(=O)c3ccccc3F)n2C)cc1` [ZNA]: the in vivo efficacy result in test [3] is “in vivo efficacy was established”. Further, in test [4], the “synergy with Zn2+ in inducing cancer-selective cell death” value is “synergizes strongly with Zn^2+ to induce cancer-selective cell death”. For the same compound, the “efficacy against primary metastatic cells from breast cancer patients” value in test [5] was “effective”.
